Structures are written as SMILES.

Data set [1] deals with T1, Solute carrier organic anion transporter family member 1B3 (Homo sapiens, UniProt Q9NPD5).
T1 sequence (Q9NPD5 whole entry): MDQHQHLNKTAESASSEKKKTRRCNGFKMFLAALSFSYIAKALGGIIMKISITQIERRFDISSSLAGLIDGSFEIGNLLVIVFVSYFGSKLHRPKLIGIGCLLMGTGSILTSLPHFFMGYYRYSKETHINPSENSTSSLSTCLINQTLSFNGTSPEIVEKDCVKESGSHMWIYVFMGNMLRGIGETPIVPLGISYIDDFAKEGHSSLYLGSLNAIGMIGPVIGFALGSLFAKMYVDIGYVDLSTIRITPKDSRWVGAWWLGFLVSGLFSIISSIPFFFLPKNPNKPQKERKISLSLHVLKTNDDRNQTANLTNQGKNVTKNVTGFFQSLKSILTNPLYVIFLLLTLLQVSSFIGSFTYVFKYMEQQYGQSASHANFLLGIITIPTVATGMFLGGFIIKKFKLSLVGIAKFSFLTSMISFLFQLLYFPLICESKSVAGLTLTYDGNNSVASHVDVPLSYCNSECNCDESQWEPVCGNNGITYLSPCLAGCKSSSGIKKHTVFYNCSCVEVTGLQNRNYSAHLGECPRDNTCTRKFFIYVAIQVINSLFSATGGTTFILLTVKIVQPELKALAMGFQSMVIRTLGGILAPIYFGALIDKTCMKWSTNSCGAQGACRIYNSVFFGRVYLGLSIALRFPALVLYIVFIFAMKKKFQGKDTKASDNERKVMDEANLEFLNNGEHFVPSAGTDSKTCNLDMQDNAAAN
Put plainly: (§1) TP_TRANSPORTER: uptake in OATP8-expressing HEK293 cells. The format is functional, cell-based. The following applies: hek293.

For data set [2], the target named is T2, OATP8 (OATP1B3, SLCO1B3) (Homo sapiens, UniProt Q9NPD5).
T2 sequence (Q9NPD5 whole entry): T1 sequence (Q9NPD5 whole entry)
Described as §1. The following applies: HEK293 cells that express OATP8 (OATP1B3). The format is functional, cell-based.

Take `C[C@]12CC[C@@H]3c4ccc(O)cc4CC[C@H]3[C@@H]1CC[C@@H]2O[C@@H]1O[C@H](C(=O)O)[C@@H](O)[C@H](O)[C@H]1O` [ESTRADIOL 17B GLUCURONIDE]: the Km in data set [1] and in data set [2] was 5.4 µM each time.
In the case of `CCCCC/C=C\C\C=C/C=C/C=C/[C@@H](SC[C@@H](NC(=O)CC[C@H](N)C(=O)O)C(=O)NCC(=O)O)[C@@H](O)CCCC(=O)O` [LEUKOTRIEN C4], the Activity entry in data set [1] was “substrate [+]”.
As to `O=C1OC(c2ccc(O)c(S(=O)(=O)O)c2)(c2ccc(O)c(S(=O)(=O)O)c2)c2c(Br)c(Br)c(Br)c(Br)c21` [SULFOBROMOPHTHALEIN SODIUM], the Km in data set [1] and in data set [2] was 3.3 µM each time.

For the origin of these results see ChEMBL document CHEMBL2074439, “Localization and genomic organization of a new hepatocellular organic anion transporting polypeptide” (J Biol Chem, 2000).
